Some results are limits rather than exact numbers.

In assay [1] the test system is PA (FluB). It is filed as binding, influenza B virus.
In assay [2] the test system is PA (FluA). The assay is classed as binding, influenza A virus.

As for “MDVNPCLLFLKVPAQ [PB11-15AT6C, -----C---------]”, the IC50 in assay [1] was greater than 3000 nM; in assay [2] it was 43.6 nM.

In the case of MDVNPFLLFLKVPAQ [PB11-15AT6F], the IC50 in assay [1] was 750 nM; in assay [2] it was 2.84 nM.

“MDVNPHLLFLKVPAQ [PB11-15AT6H, -----H---------]” showed an IC50 in assay [1] greater than 3000 nM.

For the sequence “MDVNPTFLFLKVPAQ [PB11-15AL7F, ------F--------]”, the IC50 in assay [1] was greater than 3000 nM.

Take “MDVNPTLLFIDVPAQ [PB11-15AL10I,K11D, ---------ID----]”: the IC50 in assay [1] is greater than 3000 nM.

“MDVNPTLLFLKVPAQ [PB11-15A, reference compound]”: in assay [1], the IC50 is greater than 3000 nM and the “competition for binding to FluB PA” value was “not FluB PA binding”.

Take MDVNPWLLFLKVPAQ [PB11-15AT6W]: the figures for the IC50 in assay [1] and in assay [2] were 628 nM and 3.4 nM, respectively.

Consider MDVNPYFLFLKVPAQ [PB11-15AT6Y,L7F], for which, in assay [1], the IC50 was found to be 345 nM and the “competition for binding to FluB PA” value was “also to FluB PA, albeit with less affinity than PB11-15B”. In assay [2], the IC50 is 7.51 nM and the “competition for binding to FluA PA” value was “competed for binding to FluA PA”.

Take MDVNPYLLFLKVPAQ [PB11-15AT6Y]: in assay [1], the IC50 is 107 nM and the “competition for binding to FluB PA” value is listed as “binding to FluB PA increased”. Also, in assay [2], the IC50 came out at 21.6 nM and the “competition for binding to FluA PA” value was “decreased binding of FluA PA compared to the double mutant, yet binding was still better than with wild type peptide”.

In turn, “MNINPTLLFLKVPAQ [PB11-15AD2N,V3I, -NI------------]” had an IC50 in assay [1] greater than 3000 nM.

Turning to “MNINPTLLFLKVPIQ [PB11-15AD2N,V3I,L14I, -NI----------I-]”, the IC50 in assay [1] is greater than 3000 nM.

In the case of “MNINPYFLFIDVPIQ [PB11-15B, -NI--YF--ID--I-, reference compound]”, in assay [1], the IC50 turned out to be 45 nM and the “competition for binding to FluB PA” value was “blocked FluB PA”. Further, in assay [2], the IC50 is greater than 3000 nM and the “competition for binding to FluA PA” value was “not FluA PA binding”.

Broadly, the IC50 is the concentration needed to halve the response being measured. The low end stands for higher potency, the high end for lower potency.
